In patent US8487001B2, “Medium-chain length fatty acids, glycerides and analogues as neutrophil survival and activation factors” (ProMetic BioSciences Inc., priority 2001, dated 2013):
Several values for one entry are separate records, joined by “and”; a condition that tells them apart may be missing. Identical values can stand only once.

Legend:
spleen cells = test: In vivo chemoprotection: spleen cell count; conditions: for effect on spleen cell count compared to cyclophosphamide treated mice: protocol of example 16 (pre-treatment)
Procedure: (§1) To examine the immunoprotective effect of MCT or other compounds, mice were pre-treated orally at day-3, -2 and -1 or treated intravenously at day 0 with the test compound. Mice were sacrificed at day +5 by cardiac puncture and cervical dislocation. Then, cell suspensions were prepared from thymus, spleen and bone marrow as follow.
(§2) Tissues were crushed in PBS buffer and contaminating erythrocytes were lysed in ACK buffer (155 mM NH4Cl, 12 mM NaHCO3, 0.1 mM EDTA, pH 7.3) for 5 minutes. Cells were then collected by centrifugation and washed three times in PBS and resuspended in tissue culture medium. Cells were counted on a hemacytometer.
(§3) Chemoprotection studies were performed as described in example 16 except that mice were (post)-treated with MCT, sodium caprylate, sodium caprate or capric acid per o.s. on day 1, 2, 3 and 4.

bone marrow cells = test: In vivo chemoprotection: bone marrow cell count; conditions: for effect on bone marrow cell count compared to cyclophosphamide treated mice: protocol of example 16 (pre-treatment)
Procedure: as §1, §2, §3

spleen cell subsets = test: Spleen immunophenotyping (flow cytometry of cell surface markers); type: in vivo, C57BL/6 mice
Procedure: (§4) Female, 6- to 8-week old, C57BL/6 mice were pre-treated on day -3, -2 and -1 per o.s. or intravenously at day 0 with different concentrations of MCT. Immunophenotyping was also performed on immunosuppressed animals. […] Mice were sacrificed on day 5 by cardiac puncture. Blood and spleens were collected and cell suspensions prepared and erythrocytes lysed in ACK buffer (155 mM NH4Cl, 12 mM NaHCO3, 0.1 mM EDTA, pH 7.3) for 5 minutes. The cells were washed three times in PBS, pH 7.4 and resuspended in tissue culture medium. The cells were then incubated for 45 minutes on ice with fluorescein isothiocyanate (FITC) or phycoerythrin (PE) conjugated cell surface marker according to the manufacturer's (Gibco/BRL, Cedarlane, Boehringer Mannheim) recommendation. The cells were then washed in PBS, fixed with 1% paraformaldehyde and analyzed with a Coulter XL flow cytometer. Analysis of the cell subsets was undertaken by determination of standard cell surface markers which were as follows: TCR (T-cell receptor), CD4 (T helper), CD8 (T cytotoxic/suppressor), CD11b (macrophage), NK (NK cells) and Ly5 (B-cells). Bone marrow cells were obtained as described in example 15. Cells were stained by a 45 minutes incubation of FITC or PE conjugated cell surface marker according to the manufacturer's recommendation. The cells were then washed in PBS, fixed with 1% paraformaldehyde and analyzed with a Coulter XL flow cytometer. Analysis of the cell subsets was undertaken by determination of standard cell surface markers which were as follows: CD34 (hematopoietic progenitor cells), CD41 (platelets, megakaryocytes), CD13 (myelomonocytic stem cells, myelocytes, promonocytes) and CD38 (lymphoid stem cells, pro-B, pre-B).

DA-3 breast carcinoma = test: Antitumor activity in DA-3 breast carcinoma model; type: in vivo, BALB/c mice; parameters: Tumor volume: unit not given here; conditions: for effect on tumor volume compared to the control: FIG. 12, Table 20; for effect on tumor volume compared to the control / T/C (%): therapeutic CY 200 mg/kg, TX 30 mg/kg; for Treated/Control (%) / Tumor volume: Table 19, sub-therapeutic CY 100 mg/kg, TX 20 mg/kg i.v. day 9 and 16, MCT per os, day 23; for T/C (%): Table 20
Procedure: The syngeneic tumor DMBA3 (DA-3, breast carcinoma model) arose from a preneoplastic lesion treated with 7,12-dimethylbenzanthracene in female BALB/c mice. DA-3 cells were grown as monolayer cultures in plastic flasks in RPMI-1640 containing 0.1 mM nonessential amino acids, […], 2 mM L-glutamine and 100 μg/ml gentamycin sulfate. This was further supplemented with 50 μM 2-mercaptoethanol and 10% fetal bovine serum. The DA-3 tumors were serially passage in vivo by s.c. inoculation of 5×10^5 viable tumor cells to produce localized tumors in 6- to 8-week old BALB/c mice. The animals were then serially monitored by manual palpation for evidence of tumor. Serial tumor volume was obtained by bi-dimensional diameter measurements with calipers, using the formula […] (a×b^2) where “a” was the major tumor diameter and “b” the minor perpendicular diameter.
BABL/c mice were injected with tumor cells on day 0. […] Body weights and tumor volumes were monitored from day 4 until day 23. At day 23, all animals were sacrificed. The % T/C (treatment over control) was calculated as the ratio of tumor volumes at termination date in the treatment group divided by the respective volumes in the control group multiplied by 100. By the NCl criteria the product is considered effective if % T/C is ≦40%.

blood cell subsets = test: Blood immunophenotyping (flow cytometry of cell surface markers); type: in vivo, C57BL/6 mice; conditions: for Blood Immunophenotyping: effect compared to cyclophosphamide alone (words): CY (200 mg/kg) immunosuppressed mice
Procedure: as §4

bone marrow cell subsets = test: Bone marrow immunophenotyping (CD34, CD13, CD41, CD38); type: in vivo, C57BL/6 mice; conditions: mouse, in vivo
Procedure: as §4
The effect of MCT, sodium caprylate, sodium caprate on bone marrow immunophenotyping was assessed by the protocol described in example 26.

human neutrophils (PMN) = test: Doxorubicin-induced neutrophil apoptosis, comparison to GM-CSF (% PMN viability); type: cell-based; conditions: for effect on doxorubicin-induced human neutrophil apoptosis: Table 2
Source text: Table 2 represents the effect of GM-CSF, MCT and tricaprylin on doxorubicin-induced human neutrophil apoptosis.

thymus = test: In vivo: thymus weight, MCT versus GM-CSF; conditions: normal mice; FIG. 8
Procedure: as §1
In vivo comparison on the induction of immune cell proliferation/regeneration or protection was undertaken following the protocol described in example 16. Comparative studies of MCT and GM-CSF were performed on normal and immunosuppressed animals.

[1] = Table 5, CY-treated mice, CY + test compound (CY line = CY alone), protocol of example 16
[2] = Table 6, CY-treated mice, CY + test compound (CY line = CY alone), protocol of example 16
[3] = Table 7, CY-treated mice, CY + test compound 6.25 μMole pre-treatment (CY line = CY alone)
[4] = Table 8, CY-immunosuppressed mice, CY + test compound 6.25 μM (CY line = CY alone)
[5] = Table 9, CY-immunosuppressed mice, CY + test compound 6.25 μMole (CY line = CY alone)
[6] = Table 10, CY-treated mice, post-treatment per o.s. on day 1, 2, 3 and 4 with test substance 12.5 μM (CY line = CY alone)
[7] = Table 16, CY-treated mice, CY + test compound (CY line = CY alone), protocol of example 16
[8] = immunosuppressed animals, comparison MCT versus GM-CSF

O=P1(N(CCCl)CCCl)NCCCO1 (centres unmarked) [CY, cyclophosphamide, reference compound]
effect of cytotoxic drug on spleen cell count compared to the control (spleen cells; FIG. 7, cytotoxic drug i.v. at day 0): reduce significantly the spleen cell count compared to the control
Spleen # Cells (×10^6) (spleen cells; [1]): 23 ± 4.0 ×10^6
Spleen # Cells (×10^6) (spleen cells; [2]): 36 ± 13.6 ×10^6
Spleen # Cells (×10^6) (spleen cells; [3]): 24 ± 6 ×10^6
Spleen # Cells (×10^6) (spleen cells; [4]): 19 ± 6.5 ×10^6
Spleen # Cells (×10^6) (spleen cells; [5]): 33 ± 13.2 ×10^6
Spleen # Cells (×10^6) (spleen cells; [6]): 30 ± 9.5 ×10^6
Spleen # Cells (×10^6) (spleen cells; [7]): 29 ± 9.2 ×10^6
effect of cytotoxic drug on bone marrow cell count compared to the control (bone marrow cells; FIG. 6, cytotoxic drug i.v. at day 0): depressed the bone marrow cell count compared to the control
Bone Marrow # Cells (×10^6) (bone marrow cells; [1]): 22 ± 5.7 ×10^6
Bone Marrow # Cells (×10^6) (bone marrow cells; [2]): 22 ± 5.8 ×10^6
Bone Marrow # Cells (×10^6) (bone marrow cells; [3]): 32 ± 6.3 ×10^6
Bone Marrow # Cells (×10^6) (bone marrow cells; [4]): 27 ± 2.8 ×10^6
Bone Marrow # Cells (×10^6) (bone marrow cells; [5]): 25 ± 4.9 ×10^6
Bone Marrow # Cells (×10^6) (bone marrow cells; [6]): 19 ± 4.99 ×10^6
Bone Marrow # Cells (×10^6) (bone marrow cells; [7]): 28 ± 3.4 ×10^6
Bone Marrow # Cells (×10^6) (bone marrow cells; Table 17, CY-treated mice, CY + test compound (CY line = CY alone), protocol of example 16): 26.2 ± 2.6 ×10^6
Bone Marrow # Cells (×10^6) (bone marrow cells; Table 18, CY-treated mice, CY + test compound (CY line = CY alone), protocol of example 16): 27.5 ± 8.0 ×10^6
Spleen Immunophenotyping: CD11+ cell subset (relative percentage) (spleen cell subsets; mouse, in vivo): 16.31 ± 4.85
Spleen Immunophenotyping: NK+ cell subset (relative percentage) (spleen cell subsets; mouse, in vivo): 7.53 ± 2.52
effect on tumor volume compared to the control (DA-3 breast carcinoma): significant reduction of the tumor volume
Treated/Control (%) (DA-3 breast carcinoma): 46.8%
Tumor volume (DA-3 breast carcinoma): 27.5 ± 15.9
T/C (%) (DA-3 breast carcinoma): 18.8%
Blood Immunophenotyping: CD11+ cell subset (relative percentage) (blood cell subsets; mouse, in vivo): 26.41 ± 4.54
Blood Immunophenotyping: LY5−TCR− cell subset (relative percentage) (blood cell subsets; mouse, in vivo): 36.82 ± 9.93 and 56.36 ± 7.26 and 40.91 ± 8.84
% Cells CD13+ (bone marrow) (bone marrow cell subsets): 3.2 ± 0.5%
% Cells CD34+ (bone marrow) (bone marrow cell subsets): 10 ± 1.0%
% Cells CD38+ (bone marrow) (bone marrow cell subsets): 39.6 ± 13.6%
% Cells CD41+ (bone marrow) (bone marrow cell subsets): 4.2 ± 0.6%
Bone marrow immunophenotyping (bone marrow cell subsets): induces a significant increase in all studied subsets

CC(=O)O[C@@]12CO[C@@H]1C[C@H](O)[C@@]1(C)C(=O)[C@H](O)C3=C(C)[C@@H](OC(=O)[C@H](O)[C@@H](NC(=O)OC(C)(C)C)c4ccccc4)C[C@@](O)([C@@H](OC(=O)c4ccccc4)[C@H]21)C3(C)C [TX, taxotere]
effect of cytotoxic drug on spleen cell count compared to the control (spleen cells; mouse, in vivo, iv): reduce significantly the spleen cell count compared to the control
effect of cytotoxic drug on bone marrow cell count compared to the control (bone marrow cells; mouse, in vivo, iv): has no significant effect on bone marrow cell count
effect on tumor volume compared to the control (DA-3 breast carcinoma): not significant compared to the control mice
Treated/Control (%) (DA-3 breast carcinoma): 64.5%
Tumor volume (DA-3 breast carcinoma): 37.9 ± 41.5
T/C (%) (DA-3 breast carcinoma): 64.7%

CCCCCCCCCC(=O)OCC(N)COC(=O)CCCCCCCCC [didecanoyl serinol, 1,3-O,O-Didecanoyl serinol]
Spleen # Cells (×10^6) (spleen cells; [7]): 36 ± 9.9 ×10^6
Bone Marrow # Cells (×10^6) (bone marrow cells; [7]): 30 ± 3.8 ×10^6
melting point: 101 °C

CCCCCCCC(=O)OCC(COC(=O)CCCCCCC)OC(=O)CCCCCCC [tricaprylin]
effect on doxorubicin-induced human neutrophil apoptosis (human neutrophils (PMN)): rescues doxorubin-induced apoptosis and further enhances the viability of human neutrophils to a higher extent than that observed in the non-treated neutrophils
effect on spleen cell count compared to cyclophosphamide treated mice (spleen cells; CY-treated mice): No significant effect
Spleen # Cells (×10^6) (spleen cells; [2]): 37 ± 12.6 ×10^6
effect on bone marrow cell count compared to cyclophosphamide treated mice (bone marrow cells; CY-treated mice): efficacious in the proliferation or protection of bone marrow cell counts
Bone Marrow # Cells (×10^6) (bone marrow cells; [2]): 34 ± 7.8 ×10^6

CCCCCCCCCCCCCC(=O)OCC(COC(=O)CCCCCCCCCCCCC)OC(=O)CCCCCCCCCCCCC [trimyristin]
effect on spleen cell count compared to cyclophosphamide treated mice (spleen cells; CY-treated mice): weak (not significant) activity
Spleen # Cells (×10^6) (spleen cells; [4]): 15 ± 4.6 ×10^6
effect on bone marrow cell count compared to cyclophosphamide treated mice (bone marrow cells; CY-treated mice): weak (not significant) activity
Bone Marrow # Cells (×10^6) (bone marrow cells; [4]): 31 ± 9.9 ×10^6
Spleen Immunophenotyping: effect compared to cyclophosphamide alone (words) (spleen cell subsets; CY (200 mg/kg) immunosuppressed mice): enhance the relative percentage of CD11+
Spleen Immunophenotyping: CD11+ cell subset (relative percentage) (spleen cell subsets; Table 14, CY (200 mg/kg) immunosuppressed mice, compound 6.25 μM): 42.94 ± 8.45
Blood Immunophenotyping: effect compared to cyclophosphamide alone (words) (blood cell subsets): no significant effect compared to cyclophosphamide alone
Blood Immunophenotyping: effect compared to cyclophosphamide alone (words) (blood cell subsets; listed as Trimyristin): No significant effect

GM-CSF: granulocyte-macrophage colony stimulating factor, hematopoietic growth factor
% PMN Viability (human neutrophils (PMN); GM-CSF 10^-7 M + DOX (10^-5 M)): 16.75 ± 2.05%
% PMN Viability (human neutrophils (PMN); GM-CSF 10^-8 M + DOX (10^-5 M)): 6.99 ± 0.23%
effect on doxorubicin-induced human neutrophil apoptosis (human neutrophils (PMN)): able to rescue or protect human neutrophils against doxorubicin-induced apoptosis
activity on spleen cell count (spleen cells; [8]): has no significant activity on bone marrow and spleen cell counts
activity on bone marrow cell count (bone marrow cells; [8]): has no significant activity on bone marrow and spleen cell counts
effect on thymus weight (thymus): significant effect
